Measured values as given in patent publication US20260217691A1, “FOXM1 INHIBITORS AND THEIR USE IN TREATING CANCERS” (THE BOARD OF TRUSTEES OF THE UNIVERSITY OF ILLINOIS, priority 2022, published 2026).

Tests used:
[1] = system: TAMR cells; assay type: cell-based
Procedure: FIG. 17. […] (A) Prostate cancer (22RV1 and LNCaP) cells were treated with indicated concentrations of paclitaxel alone or in combination with STL001 for 24 hrs. (B) Tamoxifen resistance MCF-7 breast cancer cells (TAM-R) were treated with indicated concentrations of Tamoxifen alone or in combination with STL001 for 24 hrs. In all cases, total protein samples were obtained from cells immediately after treatment and analyzed for FOXM1, cleaved caspase-3 levels via immunoblotting, β-actin was used as internal loading control (n=3). (C) Percent (%) dead cells in TAM-R cells treated with indicated concentrations of Tamoxifen alone or in combination with STL001 for 24 hrs. […] (F) HCC 143 cells with stable shRNA-mediated FOXM1 knockdown (KD) were treated with doxorubicin alone or in combination with STL001 for 24 hrs and compared to parental cells under the same treatment conditions. In all cases, total protein samples were obtained from cells immediately after treatment and analyzed for FOXM1, cleaved caspase-3 levels via immunoblotting, β-actin was used as internal loading control (n=3).

[2] = system: KG-1, HL-60, K562, THP-1 cells; assay type: cell-based
[3] = target: T1, FOXM1 (Homo sapiens, UniProt Q08050); test: FOXM1 protein levels by immunoblotting in solid cancer cell lines
T1 sequence (Q08050 1-763): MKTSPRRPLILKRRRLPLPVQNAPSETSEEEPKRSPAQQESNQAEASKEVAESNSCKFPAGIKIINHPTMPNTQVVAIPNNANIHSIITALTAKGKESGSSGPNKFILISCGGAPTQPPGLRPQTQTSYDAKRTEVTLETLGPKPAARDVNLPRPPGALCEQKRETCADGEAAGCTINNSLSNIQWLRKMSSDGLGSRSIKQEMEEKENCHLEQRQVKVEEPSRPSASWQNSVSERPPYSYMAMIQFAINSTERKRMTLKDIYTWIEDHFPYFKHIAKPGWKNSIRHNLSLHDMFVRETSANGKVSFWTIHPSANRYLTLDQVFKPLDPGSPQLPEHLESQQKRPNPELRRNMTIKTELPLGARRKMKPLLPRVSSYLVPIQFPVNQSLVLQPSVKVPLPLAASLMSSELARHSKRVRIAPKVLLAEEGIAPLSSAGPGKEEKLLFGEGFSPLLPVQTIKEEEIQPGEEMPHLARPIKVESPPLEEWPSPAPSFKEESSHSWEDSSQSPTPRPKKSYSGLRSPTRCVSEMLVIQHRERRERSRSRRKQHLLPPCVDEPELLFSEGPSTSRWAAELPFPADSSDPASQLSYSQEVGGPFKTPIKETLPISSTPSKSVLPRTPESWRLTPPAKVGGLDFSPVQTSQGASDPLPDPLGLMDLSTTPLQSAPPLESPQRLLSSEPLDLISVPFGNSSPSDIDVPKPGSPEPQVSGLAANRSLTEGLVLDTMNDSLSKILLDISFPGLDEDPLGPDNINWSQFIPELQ
Procedure: Cell culture: Human cell lines LNCaP and 22Rv1 (human prostate carcinoma), OVCAR8 and ES-2 (High-grade serous ovarian cancer, HGSOC), HCT-116 and HCT-FET (human colorectal carcinoma), HCC-1143 (triple negative breast cancer (TNBC), TAMR (Tamoxifen resistant MCF7) human breast cancer, were provided from various investigators. LNCaP and 22Rv1 cell lines were cultured in RPMI-1640 with 2 mM L-Glutamine (Gibco; Thermo Fisher Scientific, Waltham, MA, USA). HCC-1143 cell lines were cultured in Iscove's Modified Dulbecco Medium (IMDM) with 2 mM L-Glutamine (Gibco; Thermo Fisher Scientific). OVCAR-8, ES-2, HCT-116, and HCT-FET cell lines were cultured in Dulbecco's Modified Eagle Medium (DMEM) with 4.5 g/L glucose and 4 mM L-Glutamine (Gibco; Thermo Fisher Scientific). For all cell lines, the growth media was supplemented with 10% Foetal Bovine Serum (FBS), penicillin (100 U/mL), and 100 μg/mL streptomycin (Gibco; Thermo Fisher Scientific). TAMR cells were routinely cultured in DMEM/F12 medium without phenol red (Gibco; Thermo Fisher Scientific), containing 1% charcoal-striped FBS, 2.5 mM L-Glutamine (Thermo Fisher Scientific), 6 ng/mL insulin (Millipore Sigma) and 50 nM 4-hydroxytamoxifen (4-OHT; Millipore Sigma). All cell lines were grown and maintained at 37° C. in a humidified incubator with 5% CO2. Sub-confluent cultures (70-80%) were split 1:5 using 0.25% Trypsin/EDTA (Millipore Sigma).
Drug treatment of cultured cells: After harvesting, cells were counted in presence of Trypan Blue (Thermo Fisher Scientific) and seeded onto tissue culture plates to achieve ~50% confluency. The next day, treatment of cells was performed by aspirating the nonadherent cells and growth medium and replacing it with the fresh one containing selected concentrations of drugs. For Tamoxifen based studies, the nonadherent cells and growth media was aspirated and replaced with the DMEM supplemented with 4.5 g/L glucose and 4 mM L-Glutamine, 10% FBS, penicillin (100 U/mL), 100 μg/mL streptomycin, 10 nM estrogen, and selected concentrations of drugs. […] Post-treatment at selected times, the cells were harvested, washed with ice-cold PBS and used for protein or RNA purification as described below.
Protein immunoblotting: Total protein was extracted using ice-cold radio-immunoprecipitation assay (RIPA) buffer (Millipore Sigma) supplemented with Halt protease- and phosphatise-inhibitor cocktails (Fisher Scientific), 2 mM sodium orthovanadate (New England Biolabs, Inc., USA), and 5 mM sodium fluoride (Millipore Sigma) according to the manufacturer's protocol. Protein content in each sample was estimated using Bio-Rad Protein Assay (Bio-Rad, USA). Equal amounts of protein (20-30 μg) were separated on hand-cast SDS/PAGE (6-12%) mini-protein gels and transferred to 0.2 μm Immobilon-Psq polyvinylidene difluoride (PVDF) transfer membrane (Millipore Sigma). Membranes were blocked with 4% bovine serum albumin (BSA; Millipore Sigma) in TRIS-buffered saline (TBS) with 0.1% Tween-20 (TBS-T, Thermo Fisher Scientific) and probed overnight at 4° C. with the primary antibodies (FOXM1, Cell Signaling Technology (CST), Inc., USA; Cleaved Caspase-3, CST; β-actin, Thermo Fisher Scientific) diluted according to the manufacturer's protocol. […] After incubating membranes with the secondary antibodies, the membranes were then washed three times for 10 min each with TBST. Protein bands were developed using SuperSignal™ West Pico PLUS Chemiluminescent Substrate (Thermo Fisher Scientific) and detected using ChemiDoc Imaging System (Bio-Rad).

[4] = KG-1, HL-60 and K562 cells, 24 h

O=C(Oc1cccc(-c2ccn(-c3nc(Nc4ccccc4)nc(N4CCOCC4)n3)n2)c1)c1ccco1 [STL001]
cytotoxic effects (caspase-3 cleavage, cell viability) in combination with tamoxifen [1]: drastically enhances the cytotoxic effects of tamoxifen therapy | cytotoxic action alone ([2]; AML cell lines, single agent): did not exert prominent cytotoxic action on its own | apoptosis (caspase-3 cleavage) in combination with cytarabine [2, 4]: potent induction of apoptosis | apoptosis (caspase-3 cleavage) in combination with venetoclax [2, 4]: potent induction of apoptosis | treatment sensitization effect in cells with stable knockdown of FOXM1 ([2]; KG-1 shFOXM1 cells, venetoclax): absent | FOXM1 level in combination with cisplatin or doxorubicin ([3]; HCC-1143): efficiently prevents cisplatin or doxorubicin chemotherapy induced FOXM1 upregulation | FOXM1 levels in combination with 5′FU ([3]; HCT-116 and HCT-FET): remarkably decreased 5′FU-induced FOXM1 levels | concentration giving reduction of cellular levels of FOXM1 protein ([3]; OVCAR-8, ES-2, HCT-116, HCT-FET, TAM-R, HCC-1143, 22RV1, LNCaP, tested at 1, 5, 10 μM): 1 µM | FOXM1 protein levels in combination with doxorubicin ([3]; OVCAR-8, ES-2, 24 hrs): efficiently prevented FOXM1 activation | FOXM1 level in combination with tamoxifen ([3]; TAMR cells): efficiently prevents tamoxifen induced FOXM1 upregulation | FOXM1 expression ([3]; breast, colorectal, esophageal and ovarian cancer cells): demonstrably lowers FOXM1 expression | efficiency in reducing cellular FOXM1 activity compared to STL427944 ([3]; solid cancer cell lines): ~ 25 times
